#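 Dose response: 5 concentrations. Exposure: 48 h. Format: 96-well plates. Endpoint: linear interpolation; highest concentration if not reached. GI50 is the concentration that inhibits growth by half.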 Calls of active or inactive are those of the source. Cut-off read from the data, not from the text of the source: active = GI50 up to about 1.1 µM and inactive = higher.
# Experiments:
# Assay in all cases: NCI anticancer screen, dose series, 48 h
# 786-0 = tested on: 786-0
# A498 = tested on: A498
# A549 = tested on: A549
# ACHN = tested on: ACHN
# CAKI-1 = tested on: CAKI-1
# CCRF-CEM = tested on: CCRF-CEM
# COLO 205 = tested on: COLO 205
# DU-145 = tested on: DU-145
# EKVX = tested on: EKVX
# HCC 2998 = tested on: HCC 2998
# HCT-116 = tested on: HCT-116
# HCT-15 = tested on: HCT-15
# HL-60 = tested on: HL-60
# HOP-62 = tested on: HOP-62
# HOP-92 = tested on: HOP-92
# Hs-578T = tested on: Hs-578T
# IGROV-1 = tested on: IGROV-1
# K562 = tested on: K562
# KM12 = tested on: KM12
# LOX IMVI = tested on: LOX IMVI
# M14 = tested on: M14
# MCF7 = tested on: MCF7
# MDA-MB-231 = tested on: MDA-MB-231
# MDA-MB-435 = tested on: MDA-MB-435
# MDA-N = tested on: MDA-N
# MOLT-4 = tested on: MOLT-4
# Malme-3M = tested on: Malme-3M
# NCI-H23 = tested on: NCI-H23
# NCI-H460 = tested on: NCI-H460
# NCI-H522 = tested on: NCI-H522
# OVCAR-3 = tested on: OVCAR-3
# OVCAR-5 = tested on: OVCAR-5
# PC-3 = tested on: PC-3
# RPMI-8226 = tested on: RPMI-8226
# RXF 393 = tested on: RXF 393
# SF-268 = tested on: SF-268
# SF-295 = tested on: SF-295
# SF-539 = tested on: SF-539
# SK-MEL-28 = tested on: SK-MEL-28
# SK-MEL-2 = tested on: SK-MEL-2
# SK-MEL-5 = tested on: SK-MEL-5
# SK-OV-3 = tested on: SK-OV-3
# SN12C = tested on: SN12C
# SNB-19 = tested on: SNB-19
# SNB-75 = tested on: SNB-75
# SR = tested on: SR
# SW-620 = tested on: SW-620
# T47D = tested on: T47D
# TK-10 = tested on: TK-10
# U-251 = tested on: U-251
# UACC-257 = tested on: UACC-257
# UACC-62 = tested on: UACC-62
# UO-31 = tested on: UO-31
smiles,measurement,setting,value
CCc1cccc(CC)c1Nc1nc2c(s1)C(=O)c1ccccc1C2=O,GI50,786-0,20.9 µM (inactive)
same,GI50,A498,> 10 µM (inactive)
same,GI50,A549,31.4 µM (inactive)
same,GI50,ACHN,17.6 µM (inactive)
same,GI50,CAKI-1,16.4 µM (inactive)
same,GI50,CCRF-CEM,38.9 µM (inactive)
same,GI50,COLO 205,22.9 µM (inactive)
same,GI50,DU-145,21.6 µM (inactive)
same,GI50,EKVX,16.3 µM (inactive)
same,GI50,HCC 2998,18.7 µM (inactive)
same,GI50,HCT-116,16.7 µM (inactive)
same,GI50,HCT-15,25.7 µM
same,GI50,HL-60,26.4 µM (inactive)
same,GI50,HOP-62,16 µM (inactive)
same,GI50,HOP-92,19.5 µM (inactive)
same,GI50,Hs-578T,22.2 µM (inactive)
same,GI50,IGROV-1,12.2 µM (inactive)
same,GI50,K562,28 µM (inactive)
same,GI50,KM12,18.1 µM (inactive)
same,GI50,LOX IMVI,18 µM (inactive)
same,GI50,M14,17.4 µM (inactive)
same,GI50,MCF7,22.4 µM (inactive)
same,GI50,MDA-MB-231,16.5 µM (inactive)
same,GI50,MDA-MB-435,17.5 µM (inactive)
same,GI50,MDA-N,17.5 µM (inactive)
same,GI50,MOLT-4,23.2 µM (inactive)
same,GI50,Malme-3M,16 µM (inactive)
same,GI50,NCI-H23,15.3 µM (inactive)
same,GI50,NCI-H460,16.9 µM (inactive)
same,GI50,NCI-H522,23.4 µM (inactive)
same,GI50,OVCAR-3,13.7 µM (inactive)
same,GI50,OVCAR-5,20.3 µM (inactive)
same,GI50,PC-3,13.3 µM (inactive)
same,GI50,RPMI-8226,24.7 µM (inactive)
same,GI50,RXF 393,24.8 µM (inactive)
same,GI50,SF-268,16.9 µM (inactive)
same,GI50,SF-295,13.7 µM (inactive)
same,GI50,SF-539,24.2 µM (inactive)
same,GI50,SK-MEL-28,19.1 µM (inactive)
same,GI50,SK-MEL-2,18.6 µM (inactive)
same,GI50,SK-MEL-5,20.7 µM (inactive)
same,GI50,SK-OV-3,27.3 µM (inactive)
same,GI50,SN12C,15.8 µM (inactive)
same,GI50,SNB-19,17 µM (inactive)
same,GI50,SNB-75,11.8 µM (inactive)
same,GI50,SR,23.3 µM (inactive)
same,GI50,SW-620,26.1 µM (inactive)
same,GI50,T47D,33.6 µM (inactive)
same,GI50,TK-10,21.2 µM (inactive)
same,GI50,U-251,15.8 µM (inactive)
same,GI50,UACC-257,19.5 µM (inactive)
same,GI50,UACC-62,17.2 µM (inactive)
same,GI50,UO-31,15.4 µM (inactive)

# — ChEMBL document CHEMBL1201862, “PubChem BioAssay data set” (2004)
